Measurements as given in patent US20110306606A1, “NOVEL 2,6-SUBSTITUTED-3-NITROPYRIDINE DERIVATIVE, METHOD FOR PREPARING SAME, AND PHARMACEUTICAL COMPOSITION INCLUDING SAME” (priority 2008, published 2011).

Tests used:
[1] = system: Osteoblasts (Calvarial cells); test: Alkaline phosphatase (ALP) activity in osteoblasts (Calvarial cells); format: cell-based, mice; settings: Mus musculus, 72 h; 1 μM compound, 3 days, Calvarial cell; read-out: ALP activity (1 μM, % of Control) Calvarial cell
Summary of the method: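 Primary calvarial osteoblasts or MC3T3-E1 cells in α-MEM with 10% FBS were treated with 1 μM compound, against a 0.1% DMSO vehicle. Cell lysates were incubated with p-nitrophenylphosphate at 37° for 30 minutes and read at 405 nm. ALP activity was expressed as p-nitrophenol/μg protein/min and reported as % change versus vehicle.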

[2] = system: formation of osteoclasts in co-culture of bone marrow cells and osteoblasts; test: Osteoclastogenesis inhibition via co-culture system (TRAP staining); format: cell-based, mice; settings: Mus musculus, Osteoclast, 168 h; 1 μM compound, 7 days co-culture, TRAP-positive multinucleated osteoclasts vs vehicle control
Summary of the method: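 Bone marrow cells from male ddY mice were co-cultured with osteoblasts for 7 days in α-MEM/10% FBS with 10^−8 M 1α,25-dihydroxyvitamin D3 and dexamethasone. Compound was present at 1 μM final and refreshed every 2–3 days. TRAP-positive cells with 6–7 nuclei were counted, with % inhibition relative to DMSO vehicle (n=4).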

[3] = system: Osteoblasts (Calvarial cells); settings: ICR, mouse, 72 h, 1 μM
[4] = system: MC3T3-E1 cells; test: Alkaline phosphatase (ALP) activity in MC3T3-E1 cells; format: cell-based; settings: Mus musculus, 72 h; 1 μM compound, 3 days, MC3T3-E1 cell; read-out: ALP activity (1 μM, % of Control) MC3T3-E1 cell
Experimental: Differentiation and activity of osteoblasts were indirectly evaluated by measuring an ALP activity having a close relationship with osteogenesis.
Osteoblasts (Calvarial cells) prepared in Experimental Example 1 and MC3T3-E1 cells (available from RIKEN Cell Bank, Japan) were collected in α-MEM supplemented with 10% FBS, followed by cell counting. The cells were dispensed into 24-well cultureware at a density of 2×10^4 cells/well. After culturing of the cells for 24 hours, the culture media were discarded and replaced with fresh media in which test compounds were diluted to a concentration of 1 μM (1 mL/well). In addition, the vehicle control group containing 0.1% DMSO was also treated. […] When the experiment was terminated, the supernatant was removed and the cells were washed three times with cold phosphate buffer at 4°. 0.2% Triton X-100 was added to the washed cells which were then subjected to three cycles of freezing at −70° and thawing at room temperature for the complete lysis of cells. The cell extracts were pooled and centrifuged to collect the cell supernatant which was used for the measurement of ALP activity and proteins. The protein concentration was measured using a BCA assay kit (manufactured by Sigma-Aldrich). For the measurement of ALP activity, p-nitrophenylphosphate was added to the cell supernatant which was then incubated at 37° for 30 minutes, and the reaction was terminated with the addition of 50 μL of 0.2N sodium hydroxide. The standard curve was plotted at the absorbance of 405 nm using p-nitrophenol as a standard material and then the absorbance of test materials thus reacted was measured to determine the production amount of p-nitrophenol.
The ALP activity was calculated by dividing the amount of p-nitrophenol produced from each test material by the protein amount and the reaction time. Therefore, the unit of ALP activity was given in terms of p-nitrophenol/μg protein/min. The results are given in Tables 28-1 and 28-2 where the ALP activity unit of each test material was given in terms of % change through the comparison between the individual test materials and the vehicle control group.

Row | Structure (SMILES) | activity at 1 µM [1] | inhibition at 1 µM [2] | Cell viability (%) Calvarial cell [3] | activity at 1 µM [4]
1 | Cc1ccc(Nc2nc(NCCCn3ccnc3)ccc2[N+](=O)[O-])cc1 [Compound 9, 2-(4-methylphenylamino)-6-[(3-imidazol-1-yl)propylamino]-3-nitropyridine] | 129% | 93% | 121% | 175%
2 | COc1ccc(Nc2nc(-n3ccnc3C(C)C)ccc2[N+](=O)[O-])cc1 [Compound 21, 2-(4-methoxyphenylamino)-6-[(2-isopropyl)imidazol-1-yl]-3-nitropyridine] |  |  | 90% | 124%
3 | COc1ccc(Nc2nc(NCc3ccncc3)ccc2[N+](=O)[O-])cc1 [Compound 22, 2-(4-methoxyphenylamino)-6-[(4-pyridyl)methylamino]-3-nitropyridine] | 121% |  | 92% | 123%
4 | COc1ccc(Nc2nc(NCCCn3ccnc3)ccc2[N+](=O)[O-])cc1 [Compound 25, 2-(4-methoxyphenylamino)-6-[(3-imidazol-1-yl)propylamino]-3-nitropyridine] | 126% | 98% | 101% | 148%
5 | CC(C)(C)c1ccc(Nc2nc(NCCCn3ccnc3)ccc2[N+](=O)[O-])cc1 [Compound 39, 2-[4-(t-butyl)phenylamino]-6-[(3-imidazol-1-yl)propylamino]-3-nitropyridine] |  | 98% | 111% | 175%
6 | CC(C)(C)c1ccc(Nc2nc(NCCc3ccccn3)ccc2[N+](=O)[O-])cc1 [Compound 40, 2-[4-(t-butyl)phenylamino]-6-[2-(2-pyridyl)ethylamino]-3-nitropyridine] | 126% | 89% | 82% | 210%
7 | CNc1ccc([N+](=O)[O-])c(Nc2ccc(C#N)cc2)n1 [Compound 45, 2-(4-cyanophenylamino)-6-(methylamino)-3-nitropyridine] | 133% |  | 89% | 124%
8 | N#Cc1ccc(Nc2nc(N3CCC(O)CC3)ccc2[N+](=O)[O-])cc1 [Compound 47, 2-(4-cyanophenylamino)-6-(4-hydroxypiperidino)-3-nitropyridine] | 111% |  | 88% | 117%
9 | CC(C)c1nccn1-c1ccc([N+](=O)[O-])c(Nc2ccc(C#N)cc2)n1 [Compound 49, 2-(4-cyanophenylamino)-6-[(2-isopropyl)imidazol-1-yl]-3-nitropyridine] | 112% |  | 96% | 122%
10 | N#Cc1ccc(Nc2nc(NCc3ccncc3)ccc2[N+](=O)[O-])cc1 [Compound 50, 2-(4-cyanophenylamino)-6-[(4-pyridyl)methylamino]-3-nitropyridine] | 149% | 94% | 115% | 177%
11 | N#Cc1cccc(Nc2nc(NCCCn3ccnc3)ccc2[N+](=O)[O-])c1 [Compound 53, 2-[3-cyanophenylamino]-6-[(3-imidazol-1-yl)propylamino]-3-nitropyridine] | 134% | 97% | 115% | 121%
12 | O=[N+]([O-])c1ccc(NCc2ccncc2)nc1Nc1ccc(-n2ccnc2)cc1 [Compound 94, 2-[4-(imidazol-1-yl)phenylamino]-6-[(4-pyridyl)methylamino]-3-nitropyridine] |  | 93% | 85% | 134%
13 | O=[N+]([O-])c1ccc(NCCCn2ccnc2)nc1Nc1ccc(-n2ccnc2)cc1 [Compound 95, 2-[4-(imidazol-1-yl)phenylamino]-6-[(3-imidazol-1-yl)propylamino]-3-nitropyridine] | 138% |  | 93% | 185%
14 | CNc1ccc([N+](=O)[O-])c(Nc2cccc(C(C)=O)c2)n1 [Compound 96, 2-(3-acetylphenylamino)-6-(methylamino)-3-nitropyridine] |  |  | 90% | 137%
15 | CC(=O)c1cccc(Nc2nc(-n3ccnc3C(C)C)ccc2[N+](=O)[O-])c1 [Compound 101, 2-(3-acetylphenylamino)-6-[(2-isopropyl)imidazol-1-yl]-3-nitropyridine] |  |  | 92% | 123%
16 | CC(=O)c1cccc(Nc2nc(NCc3cccnc3)ccc2[N+](=O)[O-])c1 [Compound 102, 2-(3-acetylphenylamino)-6-[(3-pyridyl)methylamino]-3-nitropyridine] | 122% |  | 92% | 126%
17 | CC(=O)c1cccc(Nc2nc(NCc3ccncc3)ccc2[N+](=O)[O-])c1 [Compound 103, 2-(3-acetylphenylamino)-6-[(4-pyridyl)methylamino]-3-nitropyridine] |  | 74% | 93% | 151%
18 | CNc1ccc([N+](=O)[O-])c(Nc2ccc(N3CCOCC3)cc2)n1 [Compound 108, 2-(4-morpholinophenylamino)-6-(methylamino)-3-nitropyridine] |  |  | 100% | 111%
19 | O=[N+]([O-])c1ccc(N2CCC(O)CC2)nc1Nc1ccc(N2CCOCC2)cc1 [Compound 112, 2-(4-morpholinophenylamino)-6-(4-hydroxypiperidino)-3-nitropyridine] | 122% |  | 103% | 148%
20 | O=[N+]([O-])c1ccc(NCc2cccnc2)nc1Nc1ccc(N2CCOCC2)cc1 [Compound 115, 2-(4-morpholinophenylamino)-6-[(3-pyridyl)methylamino]-3-nitropyridine] | 127% | 89% |  | 148%
21 | O=[N+]([O-])c1ccc(NCCCn2ccnc2)nc1Nc1ccc(N2CCOCC2)cc1 [Compound 119, 2-(4-morpholinophenylamino)-6-[(3-imidazol-1-yl)propylamino]-3-nitropyridine] |  |  | 107% | 167%
